Measurements from patent US20250034147A1, “MDM2 DEGRADERS AND USES THEREOF” (Kymera Therapeutics, Inc., priority 2021, published 2025).

Tests used:
RS411 cells = test: Cell Viability CTG Assay; type: cell-based; details: Homo sapiens, RS4-11, CellTiter Glo (CTG) cell viability, read-out: Average external-IC50
Description: Compounds or DMSO 60 nL were stamped to the cell plate as the platemap. RS411 cells were centrifuged at 800 rpm for 5 min, suspended with culture medium, and counted with Countess (Invitrogen). The cell density was adjusted to the recommend information. 30 μL of cell solution (1000 cells/well) was added to the assay plate as the platemap and 30 μL of media was added to column 2 and column 23 as the platemap. The plate was spun down briefly. The final concentration of the compounds started at 10 μM (3 fold dilution and 11 doses) and final DMSO concentration was 0.2%. The plate was spun down briefly and incubated at 37° C., 5% CO2 for 1 day. […] 30 μL CellTiter Glo reagent was added to each well and the plate was centrifuged at 1000 rpm for 30 sec. The plate was shaken for 1 min and centrifuged at 1000 rpm for 30 sec. The plate was incubated at RT for 10 min to stabilize the luminescent signal and the luminescence was read by EnVision.
The letter codes for IC50 indicate the concentration of compound required to affect 50% of cells: A (<0.005 μM), B (0.005-0.05 μM), C (0.05-0.5 μM), and D (>0.5 μM).

HiBiT-tagged MDM2 = target: T1, HiBiT-tagged MDM2 (Homo sapiens, UniProt Q00987); test: MDM2 HiBit HEK293T degradation; type: cell-based; details: HEK293T cells stably expressing C-terminally HiBiT-tagged MDM2; 4 h; read-out: MDM2 HiBit HEK293T degradation 4 h: Average external-Abs DC50
T1 construct: expressed in transfected cells
T1 sequence (Q00987 whole entry): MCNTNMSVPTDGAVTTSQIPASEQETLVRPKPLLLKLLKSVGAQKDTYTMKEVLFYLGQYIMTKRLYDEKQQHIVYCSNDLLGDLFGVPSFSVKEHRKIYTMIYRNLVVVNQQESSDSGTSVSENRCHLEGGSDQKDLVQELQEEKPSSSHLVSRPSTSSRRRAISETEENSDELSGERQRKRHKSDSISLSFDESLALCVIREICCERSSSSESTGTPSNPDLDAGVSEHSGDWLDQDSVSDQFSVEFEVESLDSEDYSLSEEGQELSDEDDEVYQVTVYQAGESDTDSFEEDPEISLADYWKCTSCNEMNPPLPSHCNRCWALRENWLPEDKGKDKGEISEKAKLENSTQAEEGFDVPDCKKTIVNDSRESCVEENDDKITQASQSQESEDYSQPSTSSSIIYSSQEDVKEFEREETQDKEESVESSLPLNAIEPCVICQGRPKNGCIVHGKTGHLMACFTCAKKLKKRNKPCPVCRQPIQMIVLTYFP
Description: HEK293T cells were grown overnight to 70-80% confluency in a 6-well plate in complete media (DMEM 10% FBS) in a 37° C. incubator with 5% CO2. Cells were transfected with 1 micrograms of C- or N-terminally HiBiT-tagged MDM2 constructs using Fugene 6 transfection reagent (Promega) as per manufacturer protocol. After overnight incubation at 37° C., growth media within the wells was replaced with selection media (DMEM+10% FBS+1 microgram/ml final concentration of Puromycin). Puromycin (selection antibiotic) concentrations required for complete cell kill were determined previously. Cells were monitored for the next 48h-96h to select for positively transfected cells. Surviving colonies were pooled and expanded in selection media. Expanded pools of HEK293T cells stably expressing C- and N-terminally HiBiT-tagged MDM2, were characterized using a MDM2 tool degrader and HaloPROTAC3 as positive control. HEK293T cells expressing C-terminally HiBiT-tagged MDM2 were subsequently used for assessment of degradation potencies for MDM2 degraders.
The letter codes for MDM2 degradation potency (DC50) include: A (<10 nM), B […], C (>100-1000 nM), and D (>1000 nM).

Row | IC50 (RS411 cells) [nM] | DC50 (HiBiT-tagged MDM2) [nM] | Compound
1 | < 5 | < 10 | Cn1c(=O)n([C@H]2CCC(=O)NC2=O)c2ccc(C3CCN(C(=O)[C@H]4CC[C@H](NC(=O)[C@@H]5NC6(CCCCC6)[C@@]6(C(=O)Nc7cc(Cl)ccc76)[C@H]5c5cccc(Cl)c5F)CC4)CC3)cc21 (single isomer, unassigned) [I-103]
2 | < 5 | < 10 | Cn1c(=O)n([C@@H]2CCC(=O)NC2=O)c2ccc(C3CCN(C(=O)[C@H]4CC[C@H](NC(=O)[C@@H]5NC6(CCCCC6)[C@@]6(C(=O)Nc7cc(Cl)ccc76)[C@H]5c5cccc(Cl)c5F)CC4)CC3)cc21 (single isomer, unassigned) [I-104]
3 | < 5 | < 10 | CN1CCN(C[C@H]2CC[C@H](NC(=O)[C@@H]3NC4(CCCCC4)[C@@]4(C(=O)Nc5cc(Cl)ccc54)[C@H]3c3cccc(Cl)c3F)CC2)C[C@H]1CCc1ccc2c(c1)n(C)c(=O)n2C1CCC(=O)NC1=O (stereo partly drawn) [I-1]
4 | < 5 | 10 to 100 | COc1cc2c(cc1OC(C)C)[C@H](c1ccc(Cl)cc1)N(c1ccc(N(C)CC3CCN(CCCCc4ccc5c(c4)n(C)c(=O)n5C4CCC(=O)NC4=O)CC3)cc1)C(=O)C2 (stereo partly drawn) [I-4]
5 | < 5 | < 10 | Cn1c(=O)n(C2CCC(=O)NC2=O)c2ccc(C3=CCN(C[C@H]4CC[C@H](NC(=O)[C@@H]5NC6(CCCCC6)[C@@]6(C(=O)Nc7cc(Cl)ccc76)[C@H]5c5cccc(Cl)c5F)CC4)CC3)cc21 (stereo partly drawn) [I-5]
6 | < 5 | 10 to 100 | COc1cc2c(cc1OC(C)C)[C@H](c1ccc(Cl)cc1)N(c1ccc(N(C)C[C@H]3CC[C@H](N(CCS(C)(=O)=O)C(=O)CCCCc4ccc5c(c4)n(C)c(=O)n5C4CCC(=O)NC4=O)CC3)cc1)C(=O)C2 (stereo partly drawn) [I-6]
7 | 5 to 50 | < 10 | CC1(C)CCC2(CC1)NC(C(=O)N[C@H]1CC[C@H](CN3CCN(CCC#Cc4ccn5c(N6CCC(=O)NC6=O)cnc5c4)CC3)CC1)[C@H](c1ccnc(Cl)c1F)[C@]21C(=O)Nc2cc(Cl)ccc21 (stereo partly drawn) [I-7]
8 | 5 to 50 | < 10 | Cn1c(=O)n(C2CCC(=O)NC2=O)c2ccc(C#CCC3(C(=O)O)CCN(C[C@H]4CC[C@H](NC(=O)[C@@H]5NC6(CCCCC6)[C@@]6(C(=O)Nc7cc(Cl)ccc76)[C@H]5c5cccc(Cl)c5F)CC4)CC3)cc21 (stereo partly drawn) [I-8]
9 | 5 to 50 | 10 to 100 | CC(C)[C@@H](CS(=O)(=O)C(C)C)N1C(=O)[C@@](C)(CC(=O)Nc2ccc(C(=O)N3CCN(CCCc4ccc5c(c4)n(C)c(=O)n5C4CCC(=O)NC4=O)CC3)cc2)C[C@H](c2cccc(Cl)c2)[C@H]1c1ccc(Cl)cc1 (stereo partly drawn) [I-9]
10 | < 5 | < 10 | Cn1c(=O)n(C2CCC(=O)NC2=O)c2ccc(CN3CCC(OC4CCN(Cc5ccc(NC(=O)[C@@H]6NC7(CCCCC7)[C@@]7(C(=O)Nc8cc(Cl)ccc87)[C@H]6c6cccc(Cl)c6F)cc5)CC4)CC3)cc21 (stereo partly drawn) [I-10]
11 | < 5 | < 10 | Cn1c(=O)n(C2CCC(=O)NC2=O)c2ccc(CC[C@H]3CN(C[C@H]4CC[C@H](NC(=O)[C@@H]5NC6(CCCCC6)[C@@]6(C(=O)Nc7cc(Cl)ccc76)[C@H]5c5cccc(Cl)c5F)CC4)CCO3)cc21 (stereo partly drawn) [I-11]
12 | > 500 | 100 to 1000 | COc1cc2c(cc1OC(C)C)[C@H](c1ccc(Cl)cc1)N(c1ccc(N(C)C[C@H]3CC[C@H](N(CCC(=O)O)C(=O)CCCCc4ccc5c(c4)n(C)c(=O)n5C4CCC(=O)NC4=O)CC3)cc1)C(=O)C2 (stereo partly drawn) [I-12]
13 | < 5 | < 10 | CN1CCN(C[C@H]2CC[C@H](NC(=O)[C@@H]3NC4(CCCCC4)[C@@]4(C(=O)Nc5cc(Cl)ccc54)[C@H]3c3cccc(Cl)c3F)CC2)C[C@@H]1CCc1ccc2c(c1)n(C)c(=O)n2C1CCC(=O)NC1=O (stereo partly drawn) [I-13]
14 | < 5 | < 10 | CN1[C@@H](C(=O)N[C@H]2CC[C@H](CN3CCC(c4ccc5c(c4)n(C)c(=O)n5C4CCC(=O)NC4=O)CC3)CC2)[C@H](c2ccnc(Cl)c2F)[C@]2(C(=O)Nc3cc(Cl)ccc32)C12CCC(C)(C)CC2 (stereo partly drawn) [I-14]
15 | < 5 | < 10 | Cn1c(=O)n(C2CCC(=O)NC2=O)c2ccc(N3CCN(CC4CCN(C(=O)[C@H]5CC[C@H](NC(=O)[C@@H]6NC7(CCCCC7)[C@@]7(C(=O)Nc8cc(Cl)ccc87)[C@H]6c6cccc(Cl)c6F)CC5)CC4)CC3)cc21 (stereo partly drawn) [I-15]
16 | < 5 | < 10 | Cn1c(=O)n(C2CCC(=O)NC2=O)c2ccc(N3CC4(CCN(C[C@H]5CC[C@H](NC(=O)[C@@H]6NC7(CCCCC7)[C@@]7(C(=O)Nc8cc(Cl)ccc87)[C@H]6c6cccc(Cl)c6F)CC5)CC4)C3)cc21 (stereo partly drawn) [I-16]
17 | < 5 | < 10 | CN1[C@@H](C(=O)N[C@H]2CC[C@H](CN3CCC(c4ccc5c(c4)n(C)c(=O)n5C4CCC(=O)NC4=O)CC3)CC2)[C@H](c2cccc(Cl)c2F)[C@]2(C(=O)Nc3cc(Cl)ccc32)C12CCCCC2 (stereo partly drawn) [I-17]
18 | < 5 | < 10 | Cn1c(=O)n(C2CCC(=O)NC2=O)c2ccc(N3CCC(OC4CCN(C[C@H]5CC[C@H](NC(=O)[C@@H]6NC7(CCCCC7)[C@@]7(C(=O)Nc8cc(Cl)ccc87)[C@H]6c6cccc(Cl)c6F)CC5)CC4)CC3)cc21 (stereo partly drawn) [I-18]
19 | 5 to 50 | < 10 | Cn1c(=O)n(C2CCC(=O)NC2=O)c2ccc(N3CC(N4CCN(C(=O)[C@H]5CC[C@H](NC(=O)[C@@H]6NC7(CCCCC7)[C@@]7(C(=O)Nc8cc(Cl)ccc87)[C@H]6c6cccc(Cl)c6F)CC5)CC4)C3)cc21 (stereo partly drawn) [I-19]
20 | < 5 | < 10 | Cn1c(=O)n(C2CCC(=O)NC2=O)c2ccc(CCN3CCN(CCCN4CCC(NC(=O)[C@@H]5NC6(CCC(C)(C)CC6)[C@@]6(C(=O)Nc7cc(Cl)ccc76)[C@H]5c5ccnc(Cl)c5F)CC4)CC3)cc21 (stereo partly drawn) [I-20]
21 | < 5 |  | Cn1c(=O)n(C2CCC(=O)NC2=O)c2ccc(C#CC3CCN(C(=O)[C@@H]4CC[C@@H](NC(=O)[C@@H]5NC6(CCC(C)(C)CC6)[C@@]6(C(=O)Nc7cc(Cl)ccc76)[C@H]5c5cccc(Cl)c5F)CO4)CC3)cc21 (stereo partly drawn) [I-36]
22 | < 5 |  | COc1cc2c(cc1OC(C)C)[C@H](c1ccc(Cl)cc1)N(c1ccc(N(C)CC3CCN(CCCc4ccc5c(c4)n(C)c(=O)n5C4CCC(=O)NC4=O)C(=O)C3)cc1)C(=O)C2 (stereo partly drawn) [I-68]
23 | 50 to 500 |  | Cn1c(=O)n(C2CCC(=O)NC2=O)c2ccc(C3(C(=O)O)CCN(C(=O)[C@H]4CC[C@H](NC(=O)[C@@H]5NC6(CCCCC6)C6(C(=O)Nc7cc(Cl)ccc76)[C@H]5c5cccc(Cl)c5F)CC4)CC3)cc21 (stereo partly drawn) [I-84, 1-((1R,4r)-4-((3′R,4′S,5′R)-6″-chloro-4′-(3-chloro-2-fluorophenyl)-2″-oxodispiro[cyclohexane-1,2′-pyrrolidine-3′,3″-indoline]-5′-carboxamido)cyclohexane-1-carbonyl)-4-(1-(2,6-dioxopiperidin-3-yl)-3-methyl-2-oxo-2,3-dihydro-1H-benzo[d]imidazol-5-yl)piperidine-4-carboxylic acid]
24 | 50 to 500 |  | Cn1c(=O)n(C2CCC(=O)NC2=O)c2ccc(CCCS(=O)(=O)NC(=O)[C@H]3CC[C@H](NC(=O)[C@@H]4NC5(CCCCC5)[C@@]5(C(=O)Nc6cc(Cl)ccc65)[C@H]4c4cccc(Cl)c4F)CC3)cc21 (stereo partly drawn) [I-100]
25 | 5 to 50 |  | CN1C(=O)CCC(n2c(=O)n(C)c3cc(C4CCN(C[C@H]5CC[C@H](NC(=O)[C@@H]6NC7(CCCCC7)[C@@]7(C(=O)Nc8cc(Cl)ccc87)[C@H]6c6cccc(Cl)c6F)CC5)CC4)ccc32)C1=O (stereo partly drawn) [I-101]
26 | < 5 |  | COC(=O)C1(c2ccc3c(c2)n(C)c(=O)n3C2CCC(=O)NC2=O)CCN(C(=O)[C@H]2CC[C@H](NC(=O)[C@@H]3NC4(CCCCC4)[C@@]4(C(=O)Nc5cc(Cl)ccc54)[C@H]3c3cccc(Cl)c3F)CC2)CC1 (stereo partly drawn) [I-102, methyl 1-((1R,4r)-4-((3′R,4′S,5′R)-6″-chloro-4′-(3-chloro-2-fluorophenyl)-2″-oxodispiro[cyclohexane-1,2′-pyrrolidine-3′,3″-indoline]-5′-carboxamido)cyclohexane-1-carbonyl)-4-(1-(2,6-dioxopiperidin-3-yl)-3-methyl-2-oxo-2,3-dihydro-1H-benzo[d]imidazol-5-yl)piperidine-4-carboxylate]
27 |  | < 10 | Cn1c(=O)n(C2CCC(=O)NC2=O)c2ccc(CCCN3CCN(C[C@H]4CC[C@H](NC(=O)[C@@H]5NC6(CCCCC6)[C@@]6(C(=O)Nc7cc(Cl)ccc76)[C@H]5c5cccc(Cl)c5F)CC4)C[C@H]3C(=O)O)cc21 (stereo partly drawn) [I-229]
28 |  | 10 to 100 | Cn1c(=O)n(C2CCC(=O)NC2=O)c2ccc(CCCN3CCN(C[C@H]4CC[C@H](NC(=O)[C@@H]5NC6(CCCCC6)[C@@]6(C(=O)Nc7cc(Cl)ccc76)[C@H]5c5cccc(Cl)c5F)CC4)C(P(=O)(O)O)C3)cc21 (stereo partly drawn) [I-235]
